From patent publication US20260042731A1, “(2,4-DICHLOROPHENOXY)ACETIC ACID ANALOGS” (CORTEVA AGRISCIENCE LLC, priority 2022, published 2026)
Like-named read-outs stand apart in the source and are kept apart here.

Legend:
[1] = test system: Ambrosia artemisiifolia (AMBEL), common ragweed; test: Postemergence herbicide evaluation, growth of Ambrosia artemisiifolia (AMBEL); type: in vivo; settings: Ambrosia artemisiifolia, post-emergence, read-out: AVE. AMBEL, percent reduction in plant size relative to the untreated control; for pest or weed control at 280 g/ha: 280 g ae/ha; for pest or weed control at 560 g/ha: 560 g ae/ha
[2] = test system: Abutilon theophrasti (ABUTH), velvetleaf; test: Postemergence herbicide evaluation, growth of Abutilon theophrasti (ABUTH); type: in vivo; settings: Abutilon theophrasti, post-emergence, read-out: AVE. ABUTH, percent reduction in plant size relative to the untreated control; for pest or weed control at 280 g/ha: 280 g ae/ha; for pest or weed control at 560 g/ha: 560 g ae/ha
[3] = test system: glyphosate resistant Conyza canadensis (L.) (ERICA), horseweed; test: Postemergence herbicide evaluation, growth of Conyza canadensis (ERICA); type: in vivo; settings: Erigeron canadensis, post-emergence, read-out: Ave. ERICA, percent reduction in plant size relative to the untreated control; for pest or weed control at 280 g/ha: 280 g ae/ha; for pest or weed control at 560 g/ha: 560 g ae/ha
[4] = test system: Amaranthus rudis (AMATA), tall water hemp; test: Postemergence herbicide evaluation, growth of Amaranthus rudis (AMATA); type: in vivo; settings: Amaranthus tuberculatus, post-emergence, read-out: Ave. AMATA, percent reduction in plant size relative to the untreated control; for pest or weed control at 280 g/ha: 280 g ae/ha; for pest or weed control at 560 g/ha: 560 g ae/ha
[5] = test system: weeds ABUTH, AMATA, AMBEL, CHEAL, ERICA; test: Postemergence herbicide evaluation, overall average % weed control (ABUTH, AMATA, AMBEL, CHEAL, ERICA); type: in vivo; settings: post-emergence, read-out: Overall Ave % Weed Control; for pest or weed control at 280 g/ha: 280 g ae/ha; for pest or weed control at 560 g/ha: 560 g ae/ha
[6] = test system: Chenopodium album (CHEAL), common lambsquarters; test: Postemergence herbicide evaluation, growth of Chenopodium album (CHEAL); type: in vivo; settings: Chenopodium album, post-emergence, read-out: Ave. CHEAL, percent reduction in plant size relative to the untreated control; for pest or weed control at 280 g/ha: 280 g ae/ha; for pest or weed control at 560 g/ha: 560 g ae/ha
[7] = Volatility of compounds measured by thermogravimetric analysis (TGA); type: physicochemical

SMILES | pest or weed control at 280 g/ha ([1]; 168 h, 7 DAA) [%] | pest or weed control at 560 g/ha ([1]; 168 h, 7 DAA) [%] | pest or weed control at 280 g/ha ([1]; 336 h, 14 DAA) [%] | pest or weed control at 560 g/ha ([1]; 336 h, 14 DAA) [%] | pest or weed control at 280 g/ha ([1]; 504 h, 21 DAA) [%] | pest or weed control at 560 g/ha ([1]; 504 h, 21 DAA) [%] | pest or weed control at 280 g/ha ([2]; 168 h, 7 DAA) [%] | pest or weed control at 560 g/ha ([2]; 168 h, 7 DAA) [%] | pest or weed control at 280 g/ha ([2]; 336 h, 14 DAA) [%] | pest or weed control at 560 g/ha ([2]; 336 h, 14 DAA) [%] | pest or weed control at 280 g/ha ([2]; 504 h, 21 DAA) [%] | pest or weed control at 560 g/ha ([2]; 504 h, 21 DAA) [%] | pest or weed control at 280 g/ha ([3]; 168 h, 7 DAA) [%] | pest or weed control at 560 g/ha ([3]; 168 h, 7 DAA) [%] | pest or weed control at 280 g/ha ([3]; 336 h, 14 DAA) [%] | pest or weed control at 560 g/ha ([3]; 336 h, 14 DAA) [%] | pest or weed control at 280 g/ha ([3]; 504 h, 21 DAA) [%] | pest or weed control at 560 g/ha ([3]; 504 h, 21 DAA) [%] | pest or weed control at 280 g/ha ([4]; 168 h, 7 DAA) [%] | pest or weed control at 560 g/ha ([4]; 168 h, 7 DAA) [%] | further results
O=C(COc1ccc(Cl)cc1Cl)O/N=C/c1ccccc1 [Compound A2, (E)-benzaldehyde O-(2-(2,4-dichlorophenoxy)acetyl) oxime] | 65 | 73 | 92 | 96 | 91 | 100 | 85 | 85 | 94 | 96 | 98 | 96 | 68 | 73 | 93 | 85 | 90 | 98 | 68 | 75 | pest or weed control at 280 g/ha ([4]; 336 h, 14 DAA): 70%; pest or weed control at 560 g/ha ([4]; 336 h, 14 DAA): 88%; pest or weed control at 280 g/ha ([4]; 504 h, 21 DAA): 73%; pest or weed control at 560 g/ha ([4]; 504 h, 21 DAA): 87%; pest or weed control at 280 g/ha ([5]; 168 h, 7 DAA): 71%; pest or weed control at 560 g/ha ([5]; 168 h, 7 DAA): 76%; pest or weed control at 280 g/ha ([5]; 336 h, 14 DAA): 84%; pest or weed control at 560 g/ha ([5]; 336 h, 14 DAA): 90%; pest or weed control at 280 g/ha ([5]; 504 h, 21 DAA): 87%; pest or weed control at 560 g/ha ([5]; 504 h, 21 DAA): 93%; pest or weed control at 280 g/ha ([6]; 168 h, 7 DAA): 70%; pest or weed control at 560 g/ha ([6]; 168 h, 7 DAA): 73%; pest or weed control at 280 g/ha ([6]; 336 h, 14 DAA): 70%; pest or weed control at 560 g/ha ([6]; 336 h, 14 DAA): 85%; pest or weed control at 280 g/ha ([6]; 504 h, 21 DAA): 73%; pest or weed control at 560 g/ha ([6]; 504 h, 21 DAA): 87%; TGA Data (rate of weight loss, volatility) [7]: 0.8 µg/min
N/C(=N\OC(=O)COc1ccc(Cl)cc1Cl)c1ccccc1 [Compound A3, N′-(2-(2,4-Dichlorophenoxy)acetoxy)benzimidamide] | 63 | 75 | 78 | 95 | 90 | 90 | 53 | 68 | 55 | 68 | 58 | 72 | 68 | 75 | 85 | 90 | 90 | 95 | 75 | 78 | pest or weed control at 280 g/ha ([4]; 336 h, 14 DAA): 75%; pest or weed control at 560 g/ha ([4]; 336 h, 14 DAA): 90%; pest or weed control at 280 g/ha ([4]; 504 h, 21 DAA): 83%; pest or weed control at 560 g/ha ([4]; 504 h, 21 DAA): 70%; pest or weed control at 280 g/ha ([5]; 168 h, 7 DAA): 67%; pest or weed control at 560 g/ha ([5]; 168 h, 7 DAA): 73%; pest or weed control at 280 g/ha ([5]; 336 h, 14 DAA): 75%; pest or weed control at 560 g/ha ([5]; 336 h, 14 DAA): 85%; pest or weed control at 280 g/ha ([5]; 504 h, 21 DAA): 81%; pest or weed control at 560 g/ha ([5]; 504 h, 21 DAA): 83%; pest or weed control at 280 g/ha ([6]; 168 h, 7 DAA): 75%; pest or weed control at 560 g/ha ([6]; 168 h, 7 DAA): 68%; pest or weed control at 280 g/ha ([6]; 336 h, 14 DAA): 83%; pest or weed control at 560 g/ha ([6]; 336 h, 14 DAA): 83%; pest or weed control at 280 g/ha ([6]; 504 h, 21 DAA): 85%; pest or weed control at 560 g/ha ([6]; 504 h, 21 DAA): 87%; TGA Data (rate of weight loss, volatility) [7]: 1 µg/min
N/C(=N\OC(=O)COc1ccc(Cl)cc1Cl)c1cccnc1 [Compound A4, N′-(2-(2,4-Dichlorophenoxy)acetoxy)nicotinimidamide] | 60 | 68 | 78 | 88 | 88 | 85 | 35 | 50 | 40 | 58 | 38 | 53 | 60 | 65 | 83 | 85 | 88 | 88 | 75 | 60 | pest or weed control at 280 g/ha ([4]; 336 h, 14 DAA): 75%; pest or weed control at 560 g/ha ([4]; 336 h, 14 DAA): 73%; pest or weed control at 280 g/ha ([4]; 504 h, 21 DAA): 70%; pest or weed control at 560 g/ha ([4]; 504 h, 21 DAA): 75%; pest or weed control at 280 g/ha ([5]; 168 h, 7 DAA): 58%; pest or weed control at 560 g/ha ([5]; 168 h, 7 DAA): 62%; pest or weed control at 280 g/ha ([5]; 336 h, 14 DAA): 68%; pest or weed control at 560 g/ha ([5]; 336 h, 14 DAA): 76%; pest or weed control at 280 g/ha ([5]; 504 h, 21 DAA): 69%; pest or weed control at 560 g/ha ([5]; 504 h, 21 DAA): 77%; pest or weed control at 280 g/ha ([6]; 168 h, 7 DAA): 60%; pest or weed control at 560 g/ha ([6]; 168 h, 7 DAA): 68%; pest or weed control at 280 g/ha ([6]; 336 h, 14 DAA): 63%; pest or weed control at 560 g/ha ([6]; 336 h, 14 DAA): 75%; pest or weed control at 280 g/ha ([6]; 504 h, 21 DAA): 63%; pest or weed control at 560 g/ha ([6]; 504 h, 21 DAA): 83%; TGA Data (rate of weight loss, volatility) [7]: 1 µg/min
